Source: the supplement of paper PMC11451515

Tested on: NOMO1
Experiment: cell viability relative to DMSO control; higher = less cytotoxic
Conditions: 48 h
Procedure, shortened: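 Before seeding, each leukemia line was adapted for at least four passages in each medium. NOMO1 or SEM cells (500 cells/well) and P12-Ichikawa cells (1000 cells/well) went into 1536-well plates at 5 μl, then received library compounds in DMSO by pin dosing across 11 threefold concentrations, 47 μM to 0.79 nM. Readout was CellTiter-Glo One luminescence after 48 h at 37°C, and viability is given as a per-plate percentage of DMSO wells, with cell-free wells as background.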

[1] = HPLM + 10% dialyzed FBS, 0.000781 µM
[2] = HPLM + 10% dialyzed FBS, 0.00234 µM
[3] = HPLM + 10% dialyzed FBS, 0.00702 µM
[4] = HPLM + 10% dialyzed FBS, 0.0211 µM
[5] = HPLM + 10% dialyzed FBS, 0.0632 µM
[6] = HPLM + 10% dialyzed FBS, 0.19 µM
[7] = HPLM + 10% dialyzed FBS, 0.569 µM
[8] = HPLM + 10% dialyzed FBS, 1.71 µM
[9] = HPLM + 10% dialyzed FBS, 5.12 µM
[10] = HPLM + 10% dialyzed FBS, 15.4 µM
[11] = HPLM + 10% dialyzed FBS, 46.1 µM
[12] = RPMI 5 mM glucose + 10% FBS, 0.000781 µM
[13] = RPMI 5 mM glucose + 10% FBS, 0.00234 µM
[14] = RPMI 5 mM glucose + 10% FBS, 0.00702 µM
[15] = RPMI 5 mM glucose + 10% FBS, 0.0211 µM
[16] = RPMI 5 mM glucose + 10% FBS, 0.0632 µM
[17] = RPMI 5 mM glucose + 10% FBS, 0.19 µM
[18] = RPMI 5 mM glucose + 10% FBS, 0.569 µM
[19] = RPMI 5 mM glucose + 10% FBS, 1.71 µM
[20] = RPMI 5 mM glucose + 10% FBS, 5.12 µM
[21] = RPMI 5 mM glucose + 10% FBS, 15.4 µM
[22] = RPMI 5 mM glucose + 10% FBS, 46.1 µM
[23] = RPMI 5 mM glucose + 10% dialyzed FBS, 0.000781 µM
[24] = RPMI 5 mM glucose + 10% dialyzed FBS, 0.00234 µM
[25] = RPMI 5 mM glucose + 10% dialyzed FBS, 0.00702 µM
[26] = RPMI 5 mM glucose + 10% dialyzed FBS, 0.0211 µM
[27] = RPMI 5 mM glucose + 10% dialyzed FBS, 0.0632 µM
[28] = RPMI 5 mM glucose + 10% dialyzed FBS, 0.19 µM
[29] = RPMI 5 mM glucose + 10% dialyzed FBS, 0.569 µM
[30] = RPMI 5 mM glucose + 10% dialyzed FBS, 1.71 µM
[31] = RPMI 5 mM glucose + 10% dialyzed FBS, 5.12 µM
[32] = RPMI 5 mM glucose + 10% dialyzed FBS, 15.4 µM
[33] = RPMI 5 mM glucose + 10% dialyzed FBS, 46.1 µM

| SMILES | cell viability [1] [%] | cell viability [2] [%] | cell viability [3] [%] | cell viability [4] [%] | cell viability [5] [%] | cell viability [6] [%] | cell viability [7] [%] | cell viability [8] [%] | cell viability [9] [%] | cell viability [10] [%] | cell viability [11] [%] | cell viability [12] [%] | cell viability [13] [%] | cell viability [14] [%] | cell viability [15] [%] | cell viability [16] [%] | cell viability [17] [%] | cell viability [18] [%] | cell viability [19] [%] | cell viability [20] [%] | cell viability [21] [%] | cell viability [22] [%] | cell viability [23] [%] | cell viability [24] [%] | cell viability [25] [%] | cell viability [26] [%] | cell viability [27] [%] | cell viability [28] [%] | cell viability [29] [%] | cell viability [30] [%] | cell viability [31] [%] | cell viability [32] [%] | cell viability [33] [%] |
| --- | --- | --- | --- | --- | --- | --- | --- | --- | --- | --- | --- | --- | --- | --- | --- | --- | --- | --- | --- | --- | --- | --- | --- | --- | --- | --- | --- | --- | --- | --- | --- | --- | --- |
| CN1CCCN=C1/C=C/c1cccs1.O=C(O)c1cc2ccccc2c(Cc2c(O)c(C(=O)O)cc3ccccc23)c1O | 114 | 111 | 126 | 108 | 122 | 112 | 123 | 120 | 104 | 34.1 | 17.2 | 115 | 121 | 129 | 112 | 114 | 111 | 117 | 137 | 109 | 92.7 | 29.3 | 120 | 127 | 114 | 104 | 110 | 110 | 119 | 110 | 110 | 64.4 | 28.9 |
| C[C@@H]\1CC(=O)N\N=C1C2=CC=C(NN=C(C#N)C#N)C=C2 | 90.8 | 89.5 | 107 | 95.5 | 99.9 | 90.2 | 102 | 87.6 | 88.5 | 86.8 | 4.87 | 93.9 | 87.6 | 92.6 | 90.6 | 87.9 | 96.7 | 85.7 | 97.5 | 89.2 | 80 | 7.6 | 85.3 | 94.7 | 93.4 | 90.7 | 95.3 | 92.6 | 96.3 | 89 | 87.1 | 83.2 | 9.26 |
| O=C1c2c(O)ccc(O)c2C(=O)c2c(NCCNCCO)ccc(NCCNCCO)c21 | 95 | 113 | 127 | 131 | 120 | 124 | 29.3 | 92.4 | 27.3 | 24.3 | 5.26 | 102 | 102 | 107 | 108 | 100 | 105 | 18.5 | 110 | 18.2 | 17.2 | 4.37 | 107 | 113 | 108 | 113 | 112 | 103 | 53.2 | 107 | 20.3 | 27.1 | 3.81 |
| C#C[C@]1(O)CC[C@H]2[C@@H]3CCc4cc(O)ccc4[C@H]3CC[C@@]21C | 101 | 116 | 104 | 104 | 102 | 105 | 109 | 96 | 97.9 | 68 | 51.3 | 97.7 | 93.9 | 99.9 | 95.9 | 105 | 91.9 | 87 | 91.5 | 89 | 85 | 80.4 | 97.2 | 103 | 87.4 | 101 | 99.4 | 106 | 92.4 | 78.3 | 89.1 | 71.3 | 48.4 |
| C=CC(=O)N1CCC[C@@H](n2nc(-c3ccc(Oc4ccccc4)cc3)c3c(N)ncnc32)C1 |  |  |  |  |  |  |  |  |  |  |  | 117 | 117 | 113 | 101 | 110 | 99.2 | 110 | 107 | 132 | 108 | 121 | 122 | 123 | 113 | 102 | 119 | 113 | 118 | 117 | 120 | 129 | 95.9 |
| CC(C)CC(=O)N[C@H](C(=O)N[C@H](C(=O)N[C@@H](CC(C)C)[C@@H](O)CC(=O)N[C@@H](C)C(=O)N[C@@H](CC(C)C)[C@@H](O)CC(=O)O)C(C)C)C(C)C | 107 | 96.3 | 120 | 106 | 112 | 117 | 118 | 108 | 119 | 124 | 119 | 105 | 119 | 94.4 | 107 | 102 | 114 | 99.8 | 108 | 93.1 | 97.8 | 90.3 | 91.6 | 98.4 | 111 | 115 | 104 | 110 | 112 | 113 | 116 | 107 | 105 |
| COc1ncc(-c2ccc3nccc(-c4ccnnc4)c3c2)cc1N[S+](=O)([O-])c1ccc(F)cc1F | 95.5 | 81.2 | 76.8 | 89.6 | 75.1 | 66.3 | 60.5 | 45.8 | 41.7 | 31.9 | 29.7 | 121 | 96.1 | 92.3 | 79.8 | 76 | 72.8 | 69.7 | 43.1 | 29.9 | 27.8 | 21 | 104 | 92.1 | 86.2 | 76.6 | 72.9 | 62.6 | 64 | 44.7 | 38.1 | 29.7 | 19.9 |
| COc1cc2nccc(Oc3ccc(NC(=O)NC4CC4)c(Cl)c3)c2cc1C(N)=O | 129 | 120 | 111 | 98.7 | 145 | 100 | 114 | 113 | 111 | 78.1 | 17.2 |  |  |  |  |  |  |  |  |  |  |  |  |  |  |  |  |  |  |  |  |  |  |
